Laboratory results reported in patent publication US8536168B2 (Novartis AG, priority 2007, dated 2013).
Like-named read-outs stand apart in the source and are kept apart here.

Assays:
[1] = biological target: human Smoothened receptor (Homo sapiens, UniProt Q99835); assay: Smo binding assay, displacement of radio-labeled smoothened agonist, filter binding format (human); details: displacement of small molecule agonist of Smoothened, read-out: Human Smo bdg., IC50
From the text: A Smo binding assay was developed using radio-labeled smoothened agonist for compound competition. Table 9 lists the IC50 for displacement of a small molecule agonist of Smoothened determined in a filter binding format for the mouse and human Smoothened receptor.

[2] = biological target: mouse Smoothened receptor (Mus musculus, UniProt P56726); assay: Smo binding assay, displacement of radio-labeled smoothened agonist, filter binding format (mouse); details: displacement of small molecule agonist of Smoothened, read-out: Mouse Smo bdg., IC50
From the text: A Smo binding assay was developed using radio-labeled smoothened agonist for compound competition.

[3] = test system: Gli-luciferase activity; assay: Reporter gene assay (RGA) in TMHh12 cells, antagonism of Gli-luciferase activity in the presence of a Smo agonist; type: cell-based
Method: Activity of the compounds was evaluated using a reporter gene assay (RGA) in TMHh12 cells.

[4] = 25 nM small molecule Smo agonist, read-out: RGA (25 nM Smo agonist) IC50
[5] = read-out: RGA (1 nM Smo agonist) IC50, 1 nM small molecule Smo agonist

Sequence of mouse Smoothened receptor (P56726 33-793): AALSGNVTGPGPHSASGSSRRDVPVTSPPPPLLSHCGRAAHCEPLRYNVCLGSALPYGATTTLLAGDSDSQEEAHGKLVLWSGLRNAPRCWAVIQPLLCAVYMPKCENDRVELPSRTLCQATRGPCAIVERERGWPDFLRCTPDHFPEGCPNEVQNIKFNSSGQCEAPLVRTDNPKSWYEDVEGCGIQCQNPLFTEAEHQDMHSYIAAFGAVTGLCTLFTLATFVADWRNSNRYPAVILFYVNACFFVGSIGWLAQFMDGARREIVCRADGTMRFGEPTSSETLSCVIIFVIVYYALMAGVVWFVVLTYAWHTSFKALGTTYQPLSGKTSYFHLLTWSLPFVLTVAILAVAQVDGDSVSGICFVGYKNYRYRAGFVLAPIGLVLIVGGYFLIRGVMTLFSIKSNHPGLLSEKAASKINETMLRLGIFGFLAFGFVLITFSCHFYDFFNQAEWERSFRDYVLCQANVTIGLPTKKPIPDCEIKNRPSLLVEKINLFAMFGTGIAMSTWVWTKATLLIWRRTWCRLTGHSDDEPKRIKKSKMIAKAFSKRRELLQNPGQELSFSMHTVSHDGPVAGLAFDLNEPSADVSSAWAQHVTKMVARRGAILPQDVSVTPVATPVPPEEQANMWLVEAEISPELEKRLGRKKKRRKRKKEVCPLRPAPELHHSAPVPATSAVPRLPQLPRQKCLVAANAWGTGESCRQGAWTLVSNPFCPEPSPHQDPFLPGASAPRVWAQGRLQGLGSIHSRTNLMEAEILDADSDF
Sequence of human Smoothened receptor (Q99835 28-787): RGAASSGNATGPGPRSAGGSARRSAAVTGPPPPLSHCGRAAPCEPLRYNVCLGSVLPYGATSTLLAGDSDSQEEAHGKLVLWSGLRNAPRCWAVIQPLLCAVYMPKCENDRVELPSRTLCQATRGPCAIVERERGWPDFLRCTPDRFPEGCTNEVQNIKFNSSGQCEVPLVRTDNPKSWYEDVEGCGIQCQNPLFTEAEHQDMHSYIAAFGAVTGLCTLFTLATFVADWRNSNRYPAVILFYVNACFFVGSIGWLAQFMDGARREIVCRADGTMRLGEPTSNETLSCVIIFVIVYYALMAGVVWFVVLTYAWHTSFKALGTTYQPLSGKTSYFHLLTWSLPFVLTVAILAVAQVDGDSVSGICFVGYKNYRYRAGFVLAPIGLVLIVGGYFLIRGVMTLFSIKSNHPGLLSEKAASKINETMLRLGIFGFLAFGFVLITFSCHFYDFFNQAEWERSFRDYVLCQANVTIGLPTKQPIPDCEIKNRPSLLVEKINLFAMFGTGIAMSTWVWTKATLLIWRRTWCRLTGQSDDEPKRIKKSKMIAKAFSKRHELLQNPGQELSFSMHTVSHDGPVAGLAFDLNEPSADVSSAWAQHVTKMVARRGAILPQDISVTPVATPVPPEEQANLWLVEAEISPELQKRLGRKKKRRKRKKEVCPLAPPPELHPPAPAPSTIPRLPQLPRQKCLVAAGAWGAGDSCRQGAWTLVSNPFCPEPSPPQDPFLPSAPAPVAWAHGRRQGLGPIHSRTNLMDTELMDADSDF

| Compound | IC50 [1] [µM] | IC50 [2] [µM] | IC50 [3, 4] [µM] | IC50 [3, 5] [µM] |
| --- | --- | --- | --- | --- |
| N#Cc1ccc(N2CCC(c3cn(Cc4ccccc4)c4ccccc34)CC2)nc1 [Example 100] | 0.1 to 1 | 0.1 to 1 | 1 to 10 | 0.1 to 1 |
| O=C(c1cccc(F)c1)N1CCC(c2cn(Cc3ccc(F)cc3)c3ccccc23)CC1 [Example 101] | 0.1 to 1 | 0.1 to 1 | 10 to 40 | 0.1 to 1 |
| N#Cc1ccc(C(=O)N2CCC(c3cn(Cc4ccc(F)cc4)c4ccccc34)CC2)cc1 [Example 102] | 0.1 to 1 | 0.1 to 1 | – | 0.1 to 1 |
| N#Cc1cccc(C(=O)N2CCC(c3cn(Cc4ccccc4)c4ccccc34)CC2)c1 [Example 103] | 1 to 10 | 1 to 10 | 1 to 10 | 1 to 10 |
| O=C(c1ccc(C(F)(F)F)cc1)N1CCC(c2cn(Cc3ccc(F)cc3)c3ccccc23)CC1 [Example 104] | 1 to 10 | 1 to 10 | 10 to 40 | 1 to 10 |
| O=C(c1ccc(C(F)(F)F)cc1)N1CCC(c2cn(Cc3ccccc3)c3ccccc23)CC1 [Example 105] | 1 to 10 | 1 to 10 | 10 to 40 | 1 to 10 |
| c1ccc(Cc2nnc(N3CCN(c4ccccc4)CC3)c3ccccc23)cc1 [Example 106] | 1 to 10 | 1 to 10 | 1 to 10 | 0.1 to 1 |
| CP(C)(=O)c1ccc(N2CCN(c3nnc(Cc4ccccc4)c4ccccc34)CC2)nc1 [Example 107] | 0.1 to 1 | 0.1 to 1 | 0.1 to 1 | < 0.1 |
| O=C1CN(c2nnc(Cc3ccccc3)c3ccccc23)CCN1c1ccccc1 [Example 108] | 0.1 to 1 | 0.1 to 1 | 1 to 10 | 0.1 to 1 |
| OC(c1ccc(N2CCN(c3nnc(Cc4ccccc4)c4ccccc34)CC2)nc1)C(F)(F)F (stereo not shown) [Example 109] | < 0.1 | < 0.1 | 0.1 to 1 | < 0.1 |
| OC(c1ccc(N2CCN(c3nnc(Cc4ccccc4)c4ccccc34)CC2)nc1)(C(F)(F)F)C(F)(F)F [Example 110] | < 0.1 | < 0.1 | < 0.1 | < 0.1 |
| OC1(c2ccc(N3CCN(c4nnc(Cc5ccccc5)c5ccccc45)CC3)nc2)COC1 [Example 111] | 0.1 to 1 | < 0.1 | 0.1 to 1 | < 0.1 |
| FC(F)(F)c1c[nH]c(C2CCN(c3nnc(Cc4ccccc4)c4ccccc34)CC2)n1 [Example 112] | 0.1 to 1 | < 0.1 | 0.1 to 1 | < 0.1 |
| c1ccc(Cc2nnc(N3CCC(c4c[nH]c5ccccc45)CC3)c3ccccc23)cc1 [Example 113] | 0.1 to 1 | 0.1 to 1 | 1 to 10 | 0.1 to 1 |
| c1ccc(Cc2nnc(N3CCC(c4nc5ccccc5[nH]4)CC3)c3ccccc23)cc1 [Example 114] | < 0.1 | < 0.1 | 0.1 to 1 | < 0.1 |
| COC(=O)c1ccc(C2CCN(c3nnc(Cc4ccccc4)c4ccccc34)CC2)cc1 [Example 115] | 1 to 10 | 1 to 10 | 1 to 10 | 1 to 10 |
| N#Cc1ccc(C2CCN(c3nnc(Cc4ccccc4)c4ccccc34)CC2)cc1 [Example 116] | 1 to 10 | 1 to 10 | 1 to 10 | 1 to 10 |
| C[C@H]1CN(c2ccc(C#N)cn2)CCN1c1nnc(Cc2ccccc2)c2ccccc12 [Example 117] | < 0.1 | < 0.1 | 0.1 to 1 | < 0.1 |

| Compound | IC50 [1] [µM] | IC50 [2] [µM] | IC50 [3, 4] [µM] | IC50 [3, 5] [µM] |
| --- | --- | --- | --- | --- |
| C[C@@H]1CN(c2ccc(C#N)cn2)CCN1c1nnc(Cc2ccccc2)c2ccccc12 [Example 118] | 0.1 to 1 | 0.1 to 1 | 1 to 10 | 0.1 to 1 |
| C[C@@H]1CN(c2nnc(Cc3ccccc3)c3ccccc23)[C@@H](C)CN1c1ccc(C#N)cn1 [Example 119] | 0.1 to 1 | 0.1 to 1 | 1 to 10 | 0.1 to 1 |
| CC(C)(N)c1ccc(N2CCN(c3nnc(Cc4ccccc4)c4ccccc34)CC2)nc1 [Example 120, 2-(6-(4-(4-Benzylphthalazin-1-yl)piperazin-1-yl)pyridin-3-yl)propan-2-amine] | < 0.1 | < 0.1 | < 0.1 | < 0.1 |
| COCC(=O)NC(C)(C)c1ccc(N2CCN(c3nnc(Cc4ccccc4)c4ccccc34)CC2)nc1 [Example 121, N-(2-(6-(4-(4-Benzylphthalazin-1-yl)piperazin-1-yl)pyridin-3-yl)propan-2-yl)-2-methoxyacetamide] | < 0.1 | < 0.1 | < 0.1 | < 0.1 |
| COCCC(=O)NC(C)(C)c1ccc(N2CCN(c3nnc(Cc4ccccc4)c4ccccc34)CC2)nc1 [Example 122] | 0.1 to 1 | < 0.1 | 0.1 to 1 | < 0.1 |
| CC(C)(NC(=O)OCc1ccccc1)c1ccc(N2CCN(c3nnc(Cc4ccccc4)c4ccccc34)CC2)nc1 [Example 123] | < 0.1 | < 0.1 | 0.1 to 1 | < 0.1 |
| CC(C)(O)c1ccc(C2CCN(c3nnc(Cc4ccccc4)c4ccccc34)CC2)cc1 [Example 124] | 0.1 to 1 | 0.1 to 1 | 1 to 10 | < 0.1 |
| NCc1ccc(C2CCN(c3nnc(Cc4ccccc4)c4ccccc34)CC2)cc1 [Example 125, 4-[1-(4-Benzyl-phthalazine-1-yl)-piperidine-4-yl]-benzylamine] | 1 to 10 | 0.1 to 1 | 1 to 10 | 0.1 to 1 |
| CC(=O)Nc1ccc(C2CCN(c3nnc(Cc4ccccc4)c4ccccc34)CC2)cc1 [Example 129] | 1 to 10 | 0.1 to 1 | 1 to 10 | 0.1 to 1 |
| Cc1nc(N2CCN(c3nnc(Cc4ccccc4)c4ccccc34)CC2)ccc1C#N [Example 130] | 1 to 10 | 1 to 10 | 1 to 10 | 0.1 to 1 |
| O=C1CCCN1c1ccc(N2CCN(c3nnc(Cc4ccccc4)c4ccccc34)CC2)nc1 [Example 131] | < 0.1 | < 0.1 | 0.1 to 1 | 0.1 to 1 |
| NS(=O)(=O)c1ccc(N2CCN(c3nnc(Cc4ccccc4)c4ccccc34)CC2)nc1 [Example 132] | < 0.1 | < 0.1 | 0.1 to 1 | < 0.1 |
| O=S(=O)(c1ccc(N2CCN(c3nnc(Cc4ccccc4)c4ccccc34)CC2)nc1)N1CCCC1 [Example 133] | 0.1 to 1 | 0.1 to 1 | 0.1 to 1 | < 0.1 |
| CC(=O)c1ccc(N2CCN(c3nnc(Cc4ccccc4)c4ccccc34)CC2)nc1 [Example 134] | < 0.1 | < 0.1 | < 0.1 | < 0.1 |
| OC1(c2ccc(N3CCN(c4nnc(Cc5ccccc5)c5ccccc45)CC3)nc2)CC1 [Example 135] | < 0.1 | < 0.1 | 0.1 to 1 | < 0.1 |
| COC(=O)c1cnc(N2CCN(c3nnc(Cc4ccccc4)c4ccccc34)CC2)cc1C(F)(F)F [Example 136] | < 0.1 | < 0.1 | 0.1 to 1 | < 0.1 |
| CCOC(=O)c1cnc(N2CCN(c3nnc(Cc4ccccc4)c4ccccc34)CC2)nc1C(F)(F)F [Example 137] | < 0.1 | < 0.1 | < 0.1 | < 0.1 |
